Data as given in patent US6432982B1, “Benzothiophenes, and formulations and methods using same” (Eli Lilly and Company, priority 1996, dated 2002).
Marks after values point to notes of the source that are not given here.

How the values were obtained:
[1] = tested on: uterine eosinophil peroxidase; experiment: Uterine Eosinophil Peroxidase (EPO) Assay; format: in vivo, Sprague Dawley rats; settings: for Uterine Eosinophil (Vmax) (Eosinphil peroxidase Vmaxium): OVX rats, oral, daily for 4 days
From the text: (§1) Seventy-five day old female Sprague Dawley rats (weight range of 200 to 225 g) are obtained from Charles River Laboratories (Portage, Mich.). The animals are either bilaterally ovariectomized (OVX) or exposed to a Sham surgical procedure at Charles River Laboratories, and then shipped after one week. Upon arrival, they are housed in metal hanging cages in groups of 3 or 4 per cage and had ad libitum access to food (calcium content approximately 0.5%) and water for one week. Room temperature is maintained at 22.2°±1.7° C. with a minimum relative humidity of 40%. The photoperiod in the room is 12 hours light and 12 hours dark.
(§2) After a one week acclimation period (therefore, two weeks post-OVX) daily dosing with test compound is initiated. 17α-ethynyl estradiol or the test compound are given orally, unless otherwise stated, as a suspension in 1% carboxymethylcellulose or dissolved in 20% cyclodextrin. Animals are dosed daily for 4 days. Following the dosing regimen, animals are weighed and anesthetized with a ketamine: Xylazine (2:1, V:V) mixture and a blood sample is collected by cardiac puncture. The animals are then sacrificed by asphyxiation with CO2, the uterus is removed through a midline incision, and a wet uterine weight is determined.
Uteri are kept at 4° C. until time of enzymatic analysis. The uteri are then homogenized in 50 volumes of 50 mM Tris buffer (pH−8.0) containing 0.005% Triton X-100. Upon addition of 0.01% hydrogen peroxide and 10 mM O-phenylenediamine (final concentrations) in Tris buffer, increase in absorbance is monitored for one minute at 450 nm. The presence of eosonophils in the uterus is an indication of estrogenic activity of a compound. The maximal velocity of a 15 second interval is determined over the initial, linear portion of the reaction curve.

[2] = tested on: ovariectomized (OVX) rats; experiment: Serum cholesterol analysis in ovariectomized rats; format: in vivo, Sprague Dawley rats; settings: for Serum Cholest. % Dec. (Serum cholesterol decrease versus ovariectomized controls): oral, daily for 4 days
Protocol: (§3) In the examples illustrating the methods, a post-menopausal model is used in which effects of different treatments upon circulating lipids are determined.
as §1, §2
Blood samples are allowed to clot at room temperature for 2 hours, and serum is obtained following centrifugation for 10 minutes at 3000 rpm. Serum cholesterol is determined using a Boehringer Mannheim Diagnostics high performance cholesterol assay. Briefly the cholesterol is oxidized to cholest-4-en-3-one and hydrogen peroxide. The hydrogen peroxide is then reacted with phenol and 4-aminophenazone in the presence of peroxidase to produce a p-quinone imine dye, which is read spectrophotemetrically at 500 nm. Cholesterol concentration is then calculated against a standard curve. The entire assay is automated using a Biomek Automated Workstation.

[3] = tested on: uterus of ovariectomized (OVX) rats; experiment: Uterine weight in ovariectomized rat post-menopausal model; format: in vivo, Sprague Dawley rats; settings: for Uterine Weight % inch (Uterine Weight % increase versus the ovarierectomized controls): oral, daily for 4 days
Protocol: as §3, §1, §2

[4] = tested on: MCF-7 breast adenocarcinoma cells; experiment: MCF-7 Proliferation Assay; format: cell-based; settings: Homo sapiens, MCF7; tritiated thymidine incorporation, 48 hours with drug, versus the control (DMSO); read-out: IC50, inhibition of proliferation of MCF-7 cells
Protocol: MCF-7 breast adenocarcinoma cells (ATCC HTB 22) are maintained in MEM (minimal essential medium, phenol red-free, Sigma, St. Louis, Mo.) supplemented with 10% fetal bovine serum (FBS) (V/V), L-glutamine (2 mM), sodium pyruvate (1 mM), HEPES {(N-[2-hydroxyethyl]piperazine-N′-[2-ethanesulfonic acid]10 mM}, non-essential amino acids and bovine insulin (1 ug/mL) (maintenance medium). Ten days prior to assay, MCF-7 cells are switched to maintenance medium supplemented with 10% dextran coated charcoal stripped fetal bovine serum (DCC-FBS) assay medium) in place of 10% FBS to deplete internal stores of steroids. MCF-7 cells are removed from maintenance flasks using cell dissociation medium (Ca++/Mg++ free HBSS (phenol red-free) supplemented with 10 mM HEPES and 2 mM EDTA). Cells are washed twice with assay medium and adjusted to 80,000 cells/mL. Approximately 100 μL (8,000 cells) are added to flat-bottom microculture wells (Costar 3596) and incubated at 37° C. in a 5% CO2 humidified incubator for 48 hours to allow for cell adherence and equilibration after transfer. Serial dilutions of drugs or DMSO as a diluent control are prepared in assay medium and 50 μL transferred to triplicate microcultures followed by 50 μL assay medium for a final volume of 200 μL. […] Samples are counted by liquid scintillation using a Wallac BetaPlace β counter. […]

[5] = compared to the ovariectomized animals, EE2 orally at 0.1 mg/kg/day

Compound | Uterine Eosinophil (Vmax) (Eosinphil peroxidase Vmaxium) ([1]; dose 0.1 mg/kg) | eosinophil infiltration into the uterus (in words) ([1]; stromal layer of ovariectomized rat uteri) | effect on serum cholesterol (in words) [2, 5] | Serum Cholest. % Dec. (Serum cholesterol decrease versus ovariectomized controls) ([2]; dose 0.1 mg/kg) | effect on uterine weight (in words) [3, 5] | Uterine Weight % inch (Uterine Weight % increase versus the ovarierectomized controls) ([3]; dose 0.1 mg/kg) | Uterine Eosinophil (Vmax) (Eosinphil peroxidase Vmaxium) ([1]; dose 1.0 mg/kg) | Uterine Eosinophil (Vmax) (Eosinphil peroxidase Vmaxium) ([1]; dose 10.0 mg/kg) | Serum Cholest. % Dec. (Serum cholesterol decrease versus ovariectomized controls) ([2]; dose 1.0 mg/kg) | Serum Cholest. % Dec. (Serum cholesterol decrease versus ovariectomized controls) ([2]; dose 10.0 mg/kg) | Uterine Weight % inch (Uterine Weight % increase versus the ovarierectomized controls) ([3]; dose 1.0 mg/kg) [%] | Uterine Weight % inch (Uterine Weight % increase versus the ovarierectomized controls) ([3]; dose 10.0 mg/kg) | IC50 [4] [nM]
C#C[C@]1(O)CC[C@H]2[C@@H]3CCc4cc(O)ccc4[C@H]3CC[C@@]21C [EE2, 17α-ethynyl estradiol, reference compound] | 205.8* | substantial and expected increase in eosinophil infiltration | caused a decrease in serum cholesterol | 87.3* % | substantially greater than the uterine weight of the ovariectomized animals | 207.5* % |  |  |  |  |  |  | 
Cl.O=C(c1ccc(OCCN2CCCCC2)c(F)c1)c1c(-c2ccc(O)cc2)sc2cc(O)ccc12 [compound 1, [2-(4-Hydroxyphenyl)-6-hydroxybenzo[b]thien-3-yl][4-[2-(1-piperidinyl)ethoxy]3-fluorophenyl]methanone Hydrochloride] | 5.4 |  |  | 45.1* % |  | 18.4% | 4.5 | 2.7 | 59.5* % | 64.1* % | 14.9 | 12.5% | 
Cc1cc(C(=O)c2c(-c3ccc(O)cc3)sc3cc(O)ccc23)cc(C)c1OCCN1CCCCC1.Cl [compound 5, [2-(4-Hydroxyphenyl)-6-hydroxybenzo[b]thien-3-yl][4-[2-(1-piperidinyl)ethoxy]3,5-dimethylphenyl]methanone Hydrochloride] | 4.0 |  |  | 33.8* % |  | −24.4% | 7.2 | 25.9* | 55.5* % | 74.9* % | −16.4 | 27.4% | 40
Cc1cc(C(=O)c2c(-c3ccc(O)cc3)sc3cc(O)ccc23)cc(C(C)(C)C)c1OCCN1CCCCC1.Cl [compound 6, [2-(4-Hydroxyphenyl)-6-hydroxybenzo[b]thien-3-yl][4-[2-(1-piperidinyl)ethoxy]-3-t-butyl-5-methylphenyl]methanone Hydrochloride] |  |  |  |  |  |  | 2.8 |  | 55.2* % |  | −35.7 |  | 
Cl.O=C(c1ccc(OCCN2CCCCC2)c(Cl)c1)c1c(-c2ccc(O)cc2)sc2cc(O)ccc12 [compound 7, [2-(4-Hydroxyphenyl)-6-hydroxybenzo[b]thien-3-yl][4-[2-(1-piperidinyl)ethoxy]3-chlorophenyl]methanone Hydrochloride] |  |  |  |  |  |  |  | 30.9 |  | 62.2* % |  | 46.1* % | 
Cl.O=C(c1ccc(OCCN2CCCCC2)cc1Cl)c1c(-c2ccc(O)cc2)sc2cc(O)ccc12 [compound 8, [2-(4-Hydroxyphenyl)-6-hydroxybenzo[b]thien-3-yl][4-[2-(1-piperidinyl)ethoxy]2-chlorophenyl]methanone Hydrochloride] |  |  |  |  |  |  |  | 12.0 |  | 42.0* % |  | 37.5* % | 
Cl.N#Cc1cc(C(=O)c2c(-c3ccc(O)cc3)sc3cc(O)ccc23)ccc1OCCN1CCCCC1 [compound 9, [2-(4-Hydroxyphenyl)-6-hydroxybenzo[b]thien-3-yl][4-[2-(1-piperidinyl)ethoxy]3-cyanophenyl]methanone Hydrochloride] |  |  |  |  |  |  |  | 7.8 |  | 38.8* % |  | 16.8% | 
